Results on two molecules are retold here after patent US20210147900A1, “METHODS AND COMPOSITIONS FOR DETECTING BETA-HYDROXYBUTYRATE IN BIOLOGICAL FLUIDS” (F.A.T. Stats LLC, priority 2019, published 2021).

SMILES strings stand for the structures.

This data set in a line: Solubility / appearance of coenzyme Q with β-cyclodextrin in water or Tris/NaOH buffer. Format: physicochemical. The settings on record: for Appearance: in water, 5 hours at 75° C. and 5 hours at 85° C. The procedure:
First, 0.107 grams of β-cyclodextrin was dissolved in 4.8 grams of the Tris/NaOH buffer solution (pH 8.7). This mixture this heated at 45° C. for 5 minutes and then 0.082 g of coenzyme Q0 was added. Heating was continued until coenzyme Q0 was no longer visible as a solid. The coenzyme Q0/β-cyclodextrin solution was used within 2 hours of making it. Alternatively, 0.0074 grams of coenzyme Q0 and 0.0481 grams of β-cyclodextrin was mixed with 1.2070 grams water. This mixture was heated at 50° C. for 20 minutes with stirring. […] This procedure results in a fully solubilized form of coenzyme Q0 which is optically transparent and has no visible particles of coenzyme Q0 in the mixture. It is important that the coenzyme Q0 mixture is fully soluble so that it may be mixed with other water-soluble ingredients and applied to a paper test strip for further reactions with biological solutes. If the coenzyme Q0/β-cyclodextrin mixture is not water soluble, it cannot provide a uniform distribution of reactions for the test for BHB in a biological fluid as disclosed herein.
The procedure for solubilizing coenzyme Q10 in U.S. Patent Application Publication No. US 2007/0202090 A1 was followed and results are listed below in Table 17. Coenzyme Q10 and β-cyclodextrin were combined with water in the following molar ratios of coenzyme Q10 to β-cyclodextrin: 1:1; 1:5; and 1:10. Each solution was heated for 5 hours at 75° C. and then an additional 5 hours at 85° C.

With `COC1=C(OC)C(=O)C(C)=CC1=O` [coenzyme Q0, 2,3-dimethoxy-5-methyl-p-benzoquinone], under “0.0074 g coenzyme Q0, 0.0481 g β-cyclodextrin, 1.2070 g water, 50° C. for 20 minutes with stirring”, the “Appearance of mixture with β-cyclodextrin in water” value is recorded as “transparent solution with no visible particles”.
In the case of `COC1=C(OC)C(=O)C(C/C=C(\C)CC/C=C(\C)CC/C=C(\C)CC/C=C(\C)CC/C=C(\C)CC/C=C(\C)CC/C=C(\C)CC/C=C(\C)CC/C=C(\C)CCC=C(C)C)=C(C)C1=O` [coenzyme Q10], the Appearance entry runs as follows: (molar ratio coenzyme Q10 to β-cyclodextrin 1:1) “not transparent;”; (molar ratio coenzyme Q10 to β-cyclodextrin 1:5) “not transparent;”; (molar ratio coenzyme Q10 to β-cyclodextrin 1:10) “not transparent;”. The “Incorporation in basic buffer solution with β-cyclodextrin” value (same procedure as Example 2 (Tris/NaOH buffer pH 8.7, heating)) is given as “could not be adequately incorporated”.
